Activity calls are given as the source filed them. No cut-off for these calls is given here.
Experiments:
Plasmodium falciparum [1] = experiment: Antimalarial activity against mefloquine/chloroquine/pyrimethamine resistant Plasmodium falciparum Dd2 infected in human O+ erythrocytes incubated for 72 hrs by SYBR Green 1 dye based fluorescence assay; format: functional, organism-based; conditions: Dd2, Erythrocyte
[2] = biological target: Phosphatidylinositol 4,5-bisphosphate 3-kinase catalytic subunit beta isoform (Homo sapiens, UniProt P42338); experiment: Inhibition of human PI3Kbeta by ADP-Glo kinase assay
[3] = biological target: T1, Phosphatidylinositol 4,5-bisphosphate 3-kinase catalytic subunit delta isoform (Homo sapiens, UniProt O00329); experiment: Inhibition of human PI3Kdelta by ADP-Glo kinase assay
T1 sequence (O00329 whole entry): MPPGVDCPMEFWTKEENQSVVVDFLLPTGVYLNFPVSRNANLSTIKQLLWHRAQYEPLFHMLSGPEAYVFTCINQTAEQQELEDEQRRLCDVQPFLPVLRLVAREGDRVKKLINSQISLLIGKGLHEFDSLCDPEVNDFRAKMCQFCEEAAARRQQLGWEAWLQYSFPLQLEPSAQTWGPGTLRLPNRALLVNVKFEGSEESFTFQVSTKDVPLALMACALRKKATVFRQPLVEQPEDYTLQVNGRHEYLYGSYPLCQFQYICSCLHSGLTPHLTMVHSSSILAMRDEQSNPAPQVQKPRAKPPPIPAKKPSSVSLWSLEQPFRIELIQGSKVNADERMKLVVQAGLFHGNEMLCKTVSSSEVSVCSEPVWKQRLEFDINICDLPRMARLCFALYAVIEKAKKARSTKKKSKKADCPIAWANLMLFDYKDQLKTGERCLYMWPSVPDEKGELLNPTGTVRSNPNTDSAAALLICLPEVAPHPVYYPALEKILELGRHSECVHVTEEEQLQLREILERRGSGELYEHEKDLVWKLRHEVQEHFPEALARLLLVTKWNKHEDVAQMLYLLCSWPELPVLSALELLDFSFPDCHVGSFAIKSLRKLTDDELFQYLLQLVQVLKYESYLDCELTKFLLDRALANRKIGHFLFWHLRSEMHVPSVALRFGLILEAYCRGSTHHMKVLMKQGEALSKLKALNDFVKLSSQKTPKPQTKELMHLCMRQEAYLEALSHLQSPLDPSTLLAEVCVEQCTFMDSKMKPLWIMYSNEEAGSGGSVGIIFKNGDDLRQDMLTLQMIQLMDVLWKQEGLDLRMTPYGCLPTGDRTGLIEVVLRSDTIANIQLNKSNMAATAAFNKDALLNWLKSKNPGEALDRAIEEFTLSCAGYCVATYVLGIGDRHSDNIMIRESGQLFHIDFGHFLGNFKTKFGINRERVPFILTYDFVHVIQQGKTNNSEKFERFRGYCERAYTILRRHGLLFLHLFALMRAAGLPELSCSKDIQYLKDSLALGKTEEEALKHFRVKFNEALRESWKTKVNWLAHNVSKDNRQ

[4] = biological target: Phosphatidylinositol 4-phosphate 3-kinase C2 domain-containing subunit beta (Homo sapiens, UniProt O00750); experiment: Inhibition of human PIK3C2beta by ADP-Glo kinase assay
[5] = Selectivity index, ratio of IC50 for human PI3Kdelta to IC50 for recombinant His-tagged Plasmodium falciparum 3D7 PI4K expressed in baculovirus infected Sf9 cells
[6] = Selectivity index, ratio of IC50 for human PI3Kbeta to IC50 for recombinant His-tagged Plasmodium falciparum 3D7 PI4K expressed in baculovirus infected Sf9 cells
[7] = Selectivity index, ratio of IC50 for human PI4K3beta to IC50 for recombinant His-tagged Plasmodium falciparum 3D7 PI4K expressed in baculovirus infected Sf9 cells
Plasmodium falciparum [8] = experiment: Antimalarial activity against Plasmodium falciparum GB4 infected in human O+ erythrocytes incubated for 72 hrs by SYBR Green 1 dye based fluorescence assay; format: functional, organism-based; conditions: GB4, Erythrocyte
[9] = AUC(0 to t) in Sprague-Dawley rat at 1 mg/kg, iv; format: ADME, organism-based; design: dose 1 mg/kg; conditions: in vivo
[10] = AUC(0 to t) in mouse at 10 mg/kg, po; format: ADME, organism-based; design: dose 10 mg/kg; conditions: in vivo
[11] = AUC(0 to infinity) in Sprague-Dawley rat at 10 mg/kg, po; format: ADME, organism-based; design: time infinity, route oral, dose 10 mg/kg; conditions: in vivo
[12] = AUC(0 to infinity) in mouse at 10 mg/kg, po; format: ADME, organism-based; design: route oral, time infinity, dose 10 mg/kg; conditions: in vivo
[13] = Mean residence time (0 to t) in Sprague-Dawley rat at 1 mg/kg, iv; format: ADME, organism-based; conditions: in vivo
[14] = Mean residence time (0 to t) in mouse at 1 mg/kg, iv; format: ADME, organism-based; conditions: in vivo
[15] = Cmax in Sprague-Dawley rat at 10 mg/kg, po; format: ADME, organism-based; design: route oral, dose 10 mg/kg; conditions: in vivo
[16] = Apparent volume of distribution in mouse at 10 mg/kg, po; format: ADME, organism-based; conditions: in vivo
[17] = Apparent clearance in mouse at 1 mg/kg, iv; format: ADME, organism-based; conditions: in vivo, read-out: CL(app) (converted)
[18] = Apparent clearance in mouse at 10 mg/kg, po; format: ADME, organism-based; conditions: in vivo, read-out: CL(app) (converted)
[19] = Half life in mouse at 1 mg/kg, iv; format: ADME, organism-based; conditions: in vivo
[20] = Half life in mouse at 10 mg/kg, po; format: ADME, organism-based; conditions: in vivo
[21] = Oral bioavailability in Sprague-Dawley rat at 10 mg/kg; format: ADME, organism-based; conditions: in vivo
Plasmodium yoelii [22] = experiment: Antimalarial activity against blood stage Plasmodium yoelii infected in BALB/c mouse assessed as suppression of parasitemia administered once daily via oral gavage for 7 consecutive days starting from 1 day post-infection and observed for 20 days by Giemsa-staining based microscopic analysis; format: functional, organism-based; conditions: dose 60-80 mg/kg/day, time 20.0 day
Plasmodium yoelii [23] = experiment: Antimalarial activity against blood stage Plasmodium yoelii infected in BALB/c mouse assessed as suppression of parasitemia at 60 mg/kg/day, po administered for 7 consecutive days starting from 1 day post-infection and observed for 20 days by Giemsa-staining based microscopic analysis; format: functional, organism-based; conditions: time 20.0 day
Plasmodium yoelii [24] = experiment: Antimalarial activity against blood stage Plasmodium yoelii infected in BALB/c mouse assessed as suppression of parasitemia at 80 mg/kg/day, po administered for 7 consecutive days starting from 1 day post-infection and observed for 20 days by Giemsa-staining based microscopic analysis; format: functional; conditions: time 20 day
Plasmodium berghei = experiment: Antimalarial activity against liver stage luciferase-expressing Plasmodium berghei sporozoites infected in BALB/c mouse assessed as suppression of parasitemia at 1 mg/kg, po treated for 2 hrs followed by parasite infection and measured upto 196 hrs post-infection by luciferase based in vivo real-time imaging analysis; format: functional; conditions: time 198 hrs

Chain of Phosphatidylinositol 4,5-bisphosphate 3-kinase catalytic subunit beta isoform (P42338 whole entry, canonical isoform): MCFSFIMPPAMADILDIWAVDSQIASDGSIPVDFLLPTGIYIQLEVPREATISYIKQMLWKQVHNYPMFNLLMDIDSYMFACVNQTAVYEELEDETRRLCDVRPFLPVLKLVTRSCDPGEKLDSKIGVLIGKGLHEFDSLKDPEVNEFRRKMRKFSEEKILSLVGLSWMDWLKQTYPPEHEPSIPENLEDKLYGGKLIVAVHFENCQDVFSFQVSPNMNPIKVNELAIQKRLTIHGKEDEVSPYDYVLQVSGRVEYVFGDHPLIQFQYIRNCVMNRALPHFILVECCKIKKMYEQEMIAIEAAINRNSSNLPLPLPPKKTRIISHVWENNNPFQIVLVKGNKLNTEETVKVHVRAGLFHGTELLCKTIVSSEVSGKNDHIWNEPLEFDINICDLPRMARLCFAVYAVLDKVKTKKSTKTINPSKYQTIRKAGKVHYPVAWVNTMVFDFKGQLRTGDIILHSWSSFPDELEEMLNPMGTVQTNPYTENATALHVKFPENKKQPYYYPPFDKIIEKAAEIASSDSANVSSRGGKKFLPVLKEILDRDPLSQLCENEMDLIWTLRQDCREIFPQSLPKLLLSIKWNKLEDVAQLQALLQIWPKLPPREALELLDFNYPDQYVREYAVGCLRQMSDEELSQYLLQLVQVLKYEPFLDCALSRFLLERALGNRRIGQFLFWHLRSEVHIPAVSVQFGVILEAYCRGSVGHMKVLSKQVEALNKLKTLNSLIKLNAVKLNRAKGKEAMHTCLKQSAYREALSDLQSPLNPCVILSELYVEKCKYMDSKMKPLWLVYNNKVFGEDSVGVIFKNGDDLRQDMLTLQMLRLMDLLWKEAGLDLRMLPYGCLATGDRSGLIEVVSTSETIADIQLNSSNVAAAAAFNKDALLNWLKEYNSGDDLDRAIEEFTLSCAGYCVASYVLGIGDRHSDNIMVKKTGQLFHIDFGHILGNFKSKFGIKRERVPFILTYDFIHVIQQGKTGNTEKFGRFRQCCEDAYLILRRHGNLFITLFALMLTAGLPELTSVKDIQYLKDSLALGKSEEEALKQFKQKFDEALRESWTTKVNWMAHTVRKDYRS
Chain of Phosphatidylinositol 4-phosphate 3-kinase C2 domain-containing subunit beta (O00750 whole entry, the tested form may be a part): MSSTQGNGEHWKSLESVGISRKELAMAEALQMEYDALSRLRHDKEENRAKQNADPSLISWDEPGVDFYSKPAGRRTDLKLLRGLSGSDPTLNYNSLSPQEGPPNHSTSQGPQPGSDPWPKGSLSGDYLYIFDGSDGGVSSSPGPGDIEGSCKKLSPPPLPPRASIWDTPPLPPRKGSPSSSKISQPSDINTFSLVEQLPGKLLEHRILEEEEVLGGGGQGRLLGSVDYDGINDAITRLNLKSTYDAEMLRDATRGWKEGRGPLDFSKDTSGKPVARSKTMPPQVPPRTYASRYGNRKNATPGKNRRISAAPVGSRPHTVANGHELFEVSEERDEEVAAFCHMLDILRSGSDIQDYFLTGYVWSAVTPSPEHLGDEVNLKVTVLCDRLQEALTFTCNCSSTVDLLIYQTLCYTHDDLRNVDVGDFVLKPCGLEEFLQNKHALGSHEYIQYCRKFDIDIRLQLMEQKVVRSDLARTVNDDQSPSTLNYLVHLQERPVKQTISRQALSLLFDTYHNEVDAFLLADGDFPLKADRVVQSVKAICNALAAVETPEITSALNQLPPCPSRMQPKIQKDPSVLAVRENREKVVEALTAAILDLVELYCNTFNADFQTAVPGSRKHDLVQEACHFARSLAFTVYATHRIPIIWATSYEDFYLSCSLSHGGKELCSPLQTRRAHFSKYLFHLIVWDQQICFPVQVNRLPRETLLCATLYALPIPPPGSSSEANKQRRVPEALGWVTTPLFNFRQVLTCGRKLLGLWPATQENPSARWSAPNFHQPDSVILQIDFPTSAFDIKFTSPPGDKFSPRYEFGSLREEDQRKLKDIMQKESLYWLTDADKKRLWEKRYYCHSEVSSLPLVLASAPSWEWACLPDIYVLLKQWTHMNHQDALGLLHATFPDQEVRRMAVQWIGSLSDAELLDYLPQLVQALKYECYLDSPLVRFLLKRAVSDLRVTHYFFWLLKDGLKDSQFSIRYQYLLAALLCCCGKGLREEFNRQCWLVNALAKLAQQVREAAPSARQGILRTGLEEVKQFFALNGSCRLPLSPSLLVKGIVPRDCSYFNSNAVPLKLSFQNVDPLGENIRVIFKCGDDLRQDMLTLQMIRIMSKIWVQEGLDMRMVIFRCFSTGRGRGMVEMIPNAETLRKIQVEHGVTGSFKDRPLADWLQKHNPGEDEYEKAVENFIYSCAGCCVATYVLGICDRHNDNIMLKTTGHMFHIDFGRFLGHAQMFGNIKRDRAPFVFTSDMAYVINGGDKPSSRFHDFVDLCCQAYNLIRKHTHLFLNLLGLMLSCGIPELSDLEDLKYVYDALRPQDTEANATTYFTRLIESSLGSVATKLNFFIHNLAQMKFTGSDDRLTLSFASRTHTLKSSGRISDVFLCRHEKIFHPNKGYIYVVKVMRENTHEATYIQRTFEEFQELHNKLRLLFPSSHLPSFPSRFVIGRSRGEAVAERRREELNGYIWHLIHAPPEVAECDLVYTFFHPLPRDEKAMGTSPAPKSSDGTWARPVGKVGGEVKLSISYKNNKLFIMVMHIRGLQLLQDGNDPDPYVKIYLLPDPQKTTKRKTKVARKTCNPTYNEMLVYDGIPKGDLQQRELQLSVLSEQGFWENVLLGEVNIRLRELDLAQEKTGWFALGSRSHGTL

## CNC(=O)c1cncc(-c2cnc(Cl)c(NS(=O)(=O)c3ccccc3)c2)c1
Plasmodium falciparum [1]
  EC50: 30.3 nM
[2]
  IC50: 392 nM
[3]
  IC50: 104 nM
[4]
  IC50: > 10000 nM
[5]
  Ratio IC50: 100
[6]
  Ratio IC50: 400
[7]
  Ratio IC50: 400
Plasmodium falciparum [8]
  EC50: 47.8 nM
[9]
  AUC(0-t): 2160 ng·h/mL
[10]
  AUC(0-t): 2630 ng·h/mL
[11]
  AUC(0-inf): 19300 ng·h/mL
[12]
  AUC(0-inf): 2380 ng·h/mL
[13]
  MRT last: 1 h
[14]
  MRT last: 3.1 h
[15]
  Cmax: 4340 ng/mL
[16]
  Vz: 20.2 L/kg
[17]
  clearance: 51.7 mL/min/kg
[18]
  CL/F: 65 mL/min/kg
[19]
  half-life: 2.7 h
[20]
  half-life: 3.6 h
[21]
  bioavailability: 89%
Plasmodium yoelii [22]
  Activity: Dose dependent effect
Plasmodium yoelii [23]
  Activity: Active
Plasmodium yoelii [24]
  Activity: 100%
Plasmodium berghei
  Activity: 100%

Reference: ChEMBL document CHEMBL4680147, “Discovery of 6'-chloro-N-methyl-5'-(phenylsulfonamido)-[3,3'-bipyridine]-5-carboxamide (CHMFL-PI4K-127) as a novel Plasmodium falciparum PI(4)K inhibitor with potent antimalarial activity against both blood and liver stages of Plasmodium” (Eur J Med Chem, 2020)
